Source: US20160251342A1, “ALDEHYDE DERIVATIVE OF SUBSTITUTED OXAZOLIDINONES” (WANBURY LTD., priority 2012, published 2016)

Test system: CYP isoforms
Test: CYP inhibition studies, overall interpretation
Format: in vitro ADME, humans
Conditions: compound formula-B with other drug when administered
Protocol: The ability of substances to inhibit CYP1A2, CYP2C9, CYP2D6, CYP2C19, CYP2J2 and CYP3A4 in humans was investigated with pooled human liver microsomes as enzyme source in the presence of standard substrates (see below) which form CYP-isoform-specific metabolites.
Standard incubation mixtures comprise NADPH and substrates in 100 mM phosphate buffer (pH 7.4) in a total volume of 200 μl. Test compound are dissolved in acetonitrile. Incubated with pooled human liver microsomes at 37° C. for a defined time. The reactions are stopped by adding 100 μl of acetonitrile in which a suitable internal standard is always present. Precipitated proteins are removed by centrifugation, and the supernatants analyzed by LC-MS/MS. The data represents the extrapolated IC50 (μM) concentration derived from 3 μM.
This is an essential parameter to gauge drug-drug interactions.

Interpretation: drug-drug interaction: Low drug-drug interaction
Compound: O=CN(C[C@H]1CN(c2ccc(N3CCOCC3=O)cc2)C(=O)O1)C(=O)c1ccc(Cl)s1 [compound formula (B), 5-chloro-N-formyl-N-({(5S)-2-oxo-3-[4-(3-oxomorpholin-4-yl)phenyl]-1,3-oxazolidin-5-yl}methyl)thiophene-2-carboxamide]
